In ChEMBL document CHEMBL1201862, “PubChem BioAssay data set” (2004):
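Interpolation was linear, between the two tested concentrations surrounding the appropriate level; five concentrations were tested over 48 hours in 96-well plates. GI50 is the concentration that inhibits growth by half.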 The source made the active and inactive calls. Rule as the data show it: active = GI50 up to about 1.1 µM and inactive = higher.

Key:
Experiment in all cases: NCI tumour cell line growth inhibition, 48 h
SF-539 = tested on: SF-539
CAKI-1 = tested on: CAKI-1
Malme-3M = tested on: Malme-3M
HL-60 = tested on: HL-60
NCI-H522 = tested on: NCI-H522
HCT-116 = tested on: HCT-116
EKVX = tested on: EKVX
RXF 631 = tested on: RXF 631
CCRF-CEM = tested on: CCRF-CEM
M14 = tested on: M14
NCI-H226 = tested on: NCI-H226
HCT-15 = tested on: HCT-15
ACHN = tested on: ACHN
NCI-H460 = tested on: NCI-H460
A549 = tested on: A549
SK-MEL-28 = tested on: SK-MEL-28
U-251 = tested on: U-251
OVCAR-8 = tested on: OVCAR-8
OVCAR-3 = tested on: OVCAR-3
HOP-92 = tested on: HOP-92
SF-268 = tested on: SF-268
OVCAR-5 = tested on: OVCAR-5
UACC-62 = tested on: UACC-62
KM-20L2 = tested on: KM-20L2
M19-MEL = tested on: M19-MEL
SW-620 = tested on: SW-620
MOLT-4 = tested on: MOLT-4
SR = tested on: SR
COLO 205 = tested on: COLO 205
HT-29 = tested on: HT-29
SNB-78 = tested on: SNB-78
DLD-1 = tested on: DLD-1
SK-MEL-2 = tested on: SK-MEL-2
K562 = tested on: K562
UACC-257 = tested on: UACC-257
KM12 = tested on: KM12
786-0 = tested on: 786-0
RXF 393 = tested on: RXF 393
LXFL 529 = tested on: LXFL 529
IGROV-1 = tested on: IGROV-1
SNB-75 = tested on: SNB-75
OVCAR-4 = tested on: OVCAR-4
NCI-H23 = tested on: NCI-H23
DMS-114 = tested on: DMS-114
RPMI-8226 = tested on: RPMI-8226
HOP-62 = tested on: HOP-62
HCC 2998 = tested on: HCC 2998
SF-295 = tested on: SF-295
TK-10 = tested on: TK-10
LOX IMVI = tested on: LOX IMVI
SK-OV-3 = tested on: SK-OV-3
HOP-18 = tested on: HOP-18
SK-MEL-5 = tested on: SK-MEL-5
DMS-273 = tested on: DMS-273
SNB-19 = tested on: SNB-19
XF498 = tested on: XF498
SN12C = tested on: SN12C
UO-31 = tested on: UO-31
A498 = tested on: A498

CCCCCCCCCCCCCCCC(=O)OCC1OC(N2C(=O)/C(=N\NC(N)=S)c3ccc([N+](=O)[O-])cc32)C(OC(C)=O)C1OC(C)=O (configuration not stated)
GI50 (SF-539): > 100 µM (inactive) | GI50 (CAKI-1): > 100 µM (inactive) | GI50 (Malme-3M): > 100 µM (inactive) | GI50 (HL-60): > 100 µM (inactive) | GI50 (NCI-H522): 36.6 µM (inactive) | GI50 (HCT-116): 29 µM (inactive) | GI50 (EKVX): 39.4 µM (inactive) | GI50 (RXF 631): > 100 µM (inactive) | GI50 (CCRF-CEM): > 100 µM (inactive) | GI50 (M14): 62.2 µM (inactive) | GI50 (NCI-H226): > 100 µM (inactive) | GI50 (HCT-15): 86.1 µM | GI50 (ACHN): 48.5 µM (inactive) | GI50 (NCI-H460): > 100 µM (inactive) | GI50 (A549): 56.2 µM (inactive) | GI50 (SK-MEL-28): > 100 µM (inactive) | GI50 (U-251): 78 µM (inactive) | GI50 (OVCAR-8): 52.1 µM (inactive) | GI50 (OVCAR-3): 60.3 µM (inactive) | GI50 (HOP-92): 93.5 µM (inactive) | GI50 (SF-268): > 100 µM (inactive) | GI50 (OVCAR-5): > 100 µM (inactive) | GI50 (UACC-62): 69.7 µM (inactive) | GI50 (KM-20L2): 57.3 µM (inactive) | GI50 (M19-MEL): > 100 µM (inactive) | GI50 (SW-620): > 100 µM (inactive) | GI50 (MOLT-4): > 100 µM (inactive) | GI50 (SR): > 100 µM (inactive) | GI50 (COLO 205): 37.1 µM (inactive) | GI50 (HT-29): > 100 µM (inactive) | GI50 (SNB-78): > 100 µM (inactive) | GI50 (DLD-1): 77.1 µM (inactive) | GI50 (SK-MEL-2): > 100 µM (inactive) | GI50 (K562): > 100 µM (inactive) | GI50 (UACC-257): > 100 µM (inactive) | GI50 (KM12): 74.1 µM (inactive) | GI50 (786-0): > 100 µM (inactive) | GI50 (RXF 393): > 100 µM (inactive) | GI50 (LXFL 529): 38.7 µM (inactive) | GI50 (IGROV-1): > 100 µM (inactive) | GI50 (SNB-75): > 100 µM (inactive) | GI50 (OVCAR-4): > 100 µM (inactive) | GI50 (NCI-H23): > 100 µM (inactive) | GI50 (DMS-114): 66.7 µM (inactive) | GI50 (RPMI-8226): > 100 µM (inactive) | GI50 (HOP-62): > 100 µM (inactive) | GI50 (HCC 2998): > 100 µM (inactive) | GI50 (SF-295): > 100 µM (inactive) | GI50 (TK-10): > 100 µM (inactive) | GI50 (LOX IMVI): 99.3 µM (inactive) | GI50 (SK-OV-3): 48.4 µM (inactive) | GI50 (HOP-18): > 100 µM (inactive) | GI50 (SK-MEL-5): 97.5 µM (inactive) | GI50 (DMS-273): > 100 µM (inactive) | GI50 (SNB-19): > 100 µM (inactive) | GI50 (XF498): > 100 µM (inactive) | GI50 (SN12C): > 100 µM (inactive)

COc1cc(OC)c2c(=O)c3cccc([N+](=O)[O-])c3n(C)c2c1
GI50 (SF-539): 74 µM (inactive) | GI50 (CAKI-1): > 100 µM (inactive) | GI50 (Malme-3M): > 100 µM (inactive) | GI50 (HL-60): 31.3 µM (inactive) | GI50 (NCI-H522): 52.4 µM (inactive) | GI50 (EKVX): > 100 µM (inactive) | GI50 (RXF 631): 34.5 µM (inactive) | GI50 (CCRF-CEM): 60 µM (inactive) | GI50 (M14): > 100 µM (inactive) | GI50 (HCT-15): > 100 µM | GI50 (A549): > 100 µM (inactive) | GI50 (SK-MEL-28): > 100 µM (inactive) | GI50 (U-251): > 100 µM (inactive) | GI50 (OVCAR-8): > 100 µM (inactive) | GI50 (SF-268): > 100 µM (inactive) | GI50 (UACC-62): > 100 µM (inactive) | GI50 (KM-20L2): > 100 µM (inactive) | GI50 (SW-620): > 100 µM (inactive) | GI50 (MOLT-4): 47 µM (inactive) | GI50 (COLO 205): > 100 µM (inactive) | GI50 (HT-29): > 100 µM (inactive) | GI50 (SNB-78): > 100 µM (inactive) | GI50 (SK-MEL-2): > 100 µM (inactive) | GI50 (K562): > 100 µM (inactive) | GI50 (UACC-257): 87.9 µM (inactive) | GI50 (KM12): > 100 µM (inactive) | GI50 (786-0): > 100 µM (inactive) | GI50 (RXF 393): > 100 µM (inactive) | GI50 (UO-31): > 100 µM (inactive) | GI50 (LXFL 529): > 100 µM (inactive) | GI50 (IGROV-1): 61.4 µM (inactive) | GI50 (SNB-75): > 100 µM (inactive) | GI50 (OVCAR-4): > 100 µM (inactive) | GI50 (NCI-H23): 77.8 µM (inactive) | GI50 (DMS-114): 69.2 µM (inactive) | GI50 (RPMI-8226): > 100 µM (inactive) | GI50 (SF-295): > 100 µM (inactive) | GI50 (TK-10): > 100 µM (inactive) | GI50 (LOX IMVI): 80.4 µM (inactive) | GI50 (SK-OV-3): > 100 µM (inactive) | GI50 (HOP-18): < 0.01 µM (active) | GI50 (SK-MEL-5): > 100 µM (inactive) | GI50 (DMS-273): 60.3 µM (inactive) | GI50 (SNB-19): > 100 µM (inactive) | GI50 (XF498): > 100 µM (inactive) | GI50 (SN12C): 95.3 µM (inactive)

COc1cc(C(C)O)c[n+](Cc2ccccc2)c1 (configuration not stated)
GI50 (SF-539): > 100 µM (inactive) | GI50 (CAKI-1): > 100 µM (inactive) | GI50 (Malme-3M): > 100 µM (inactive) | GI50 (HL-60): > 100 µM (inactive) | GI50 (NCI-H522): > 100 µM (inactive) | GI50 (HCT-116): > 100 µM (inactive) | GI50 (EKVX): > 100 µM (inactive) | GI50 (RXF 631): > 100 µM (inactive) | GI50 (CCRF-CEM): > 100 µM (inactive) | GI50 (M14): > 100 µM (inactive) | GI50 (NCI-H226): > 100 µM (inactive) | GI50 (HCT-15): > 100 µM | GI50 (ACHN): > 100 µM (inactive) | GI50 (NCI-H460): > 100 µM (inactive) | GI50 (A549): > 100 µM (inactive) | GI50 (A498): > 100 µM (inactive) | GI50 (SK-MEL-28): > 100 µM (inactive) | GI50 (U-251): > 100 µM (inactive) | GI50 (OVCAR-8): > 31.6 µM (inactive) | GI50 (OVCAR-3): > 100 µM (inactive) | GI50 (HOP-92): > 100 µM (inactive) | GI50 (SF-268): > 100 µM (inactive) | GI50 (OVCAR-5): > 100 µM (inactive) | GI50 (UACC-62): > 100 µM (inactive) | GI50 (KM-20L2): > 100 µM (inactive) | GI50 (M19-MEL): > 100 µM (inactive) | GI50 (SW-620): > 100 µM (inactive) | GI50 (MOLT-4): > 100 µM (inactive) | GI50 (SR): > 100 µM (inactive) | GI50 (COLO 205): > 100 µM (inactive) | GI50 (HT-29): > 100 µM (inactive) | GI50 (SNB-78): > 100 µM (inactive) | GI50 (DLD-1): > 100 µM (inactive) | GI50 (SK-MEL-2): > 100 µM (inactive) | GI50 (K562): > 100 µM (inactive) | GI50 (UACC-257): > 100 µM (inactive) | GI50 (KM12): > 100 µM (inactive) | GI50 (786-0): > 100 µM (inactive) | GI50 (RXF 393): > 100 µM (inactive) | GI50 (UO-31): > 100 µM (inactive) | GI50 (LXFL 529): > 100 µM (inactive) | GI50 (IGROV-1): > 100 µM (inactive) | GI50 (SNB-75): > 100 µM (inactive) | GI50 (OVCAR-4): > 100 µM (inactive) | GI50 (NCI-H23): > 100 µM (inactive) | GI50 (DMS-114): > 100 µM (inactive) | GI50 (RPMI-8226): > 100 µM (inactive) | GI50 (HOP-62): > 100 µM (inactive) | GI50 (HCC 2998): > 100 µM (inactive) | GI50 (SF-295): > 100 µM (inactive) | GI50 (TK-10): > 100 µM (inactive) | GI50 (LOX IMVI): > 100 µM (inactive) | GI50 (SK-OV-3): > 100 µM (inactive) | GI50 (HOP-18): > 100 µM (inactive) | GI50 (SK-MEL-5): > 100 µM (inactive) | GI50 (DMS-273): > 100 µM (inactive) | GI50 (SNB-19): > 100 µM (inactive) | GI50 (XF498): > 31.6 µM (inactive) | GI50 (SN12C): > 40.5 µM (inactive)
